Test results taken from PubChem BioAssay AID1259411 (Chemical Carcinogenesis Research Information System (CCRIS), 2018).
Activity calls are given as the source filed them. No rule for the calls is given here.

Tested on: rodent carcinogenicity bioassays, tumor incidence
Assay: CCRIS carcinogenicity studies
Summary of the method: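 NCI-built, expert-reviewed records of carcinogenicity and related test outcomes (mutagenicity, tumor promotion/inhibition) compiled from published and report sources, historical span 1985-2011, not updated.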

How did the carcinogen call (Species: Mouse, Strain/Sex: CD-1/Female (56/dose), Route: Oral, Dose: 0, 200, 750, 1,600 ppm (0; 38.4; 140/6; 309.7 mg/kg/day) of 94-95% pure cyfluthrin in feed for 18 mo, Dose: 0, 200, 750, 1,600 ppm (0; 38.4; 140/6; 309.7 mg/kg/day) of 94-95% pure cyfluthrin in feed for 18 mo) turn out when `CC1(C)C(C=C(Cl)Cl)C1C(=O)OC(C#N)c1ccc(F)c(Oc2ccccc2)c1` (centres undefined) was run?
Its carcinogen call is “inactive; negative”.

And the carcinogen call (Species: Mouse, Strain/Sex: CD-1/Male (56/dose), Route: Oral, Dose: 0, 200, 750, 1,400 ppm (0; 31.9; 114.8; 232.7 mg/kg/day) of 94-95% pure cyfluthrin in feed for 18 mo, Dose: 0, 200, 750, 1,400 ppm (0; 31.9; 114.8; 232.7 mg/kg/day) of 94-95% pure cyfluthrin in feed for 18 mo)?
The carcinogen call was “inactive; negative”.

What about the carcinogen call (Species: Rat, Strain/Sex: Fisher 344/Female (55/dose), Route: Oral, Dose: 0, 50, 225, 450 ppm (3.3; 14.4; 28.3 mg/kg/day) of 93.9-95.1% pure cyfluthrin in feed for 2 yr, Dose: 0, 50, 225, 450 ppm (3.3; 14.4; 28.3 mg/kg/day) of 93.9-95.1% pure cyfluthrin in feed for 2 yr) of the same compound?
Its carcinogen call is “inactive; negative”.

What about the carcinogen call (Species: Rat, Strain/Sex: Fisher 344/Male (55/dose), Route: Oral, Dose: 0, 50, 225, 450 ppm (2.6; 11.6; 22.8 mg/kg/day) of 93.9-95.1% pure cyfluthrin in feed for 2 yr, Dose: 0, 50, 225, 450 ppm (2.6; 11.6; 22.8 mg/kg/day) of 93.9-95.1% pure cyfluthrin in feed for 2 yr) of the same compound?
Its carcinogen call is “inactive; negative”.

Which carcinogen call (Species: MOUSE, Strain/Sex: B6C3F1/FEMALE, Route: DERMAL, Dose: 0, 40, 80, 160 MG/KG BW IN ETHANOL 5 D/WK FOR 103 WK (STUDY DURATION: 103 WK), Dose: 0, 40, 80, 160 MG/KG BW IN ETHANOL 5 D/WK FOR 103 WK (STUDY DURATION: 103 WK), Tumor Site: Type of Lesion: LIVER: HEPATOCELLULAR ADENOMA, HEPATOCELLULAR CARCINOMA, OR HEPATOBLASTOMA) does the source give for `OCCNCCO` here?
The carcinogen call was “active; positive”.

What about the carcinogen call (Species: MOUSE, Strain/Sex: B6C3F1/MALE, Route: DERMAL, Dose: 0, 40, 80, 160 MG/KG BW IN ETHANOL 5 D/WK FOR 103 WK (STUDY DURATION: 103 WK), Dose: 0, 40, 80, 160 MG/KG BW IN ETHANOL 5 D/WK FOR 103 WK (STUDY DURATION: 103 WK), Tumor Site: Type of Lesion: LIVER: HEPATOCELLULAR ADENOMA, HEPATOCELLULAR CARCINOMA, OR HEPATOBLASTOMA) of the same compound?
Its carcinogen call is “active; positive”.

What about the carcinogen call (Species: RAT, Strain/Sex: F344/N/FEMALE, Route: DERMAL, Dose: 0, 8, 16, 32 MG/KG BW IN ETHANOL 5 D/WK FOR 103 WK (STUDY DURATION: 103 WK), Dose: 0, 8, 16, 32 MG/KG BW IN ETHANOL 5 D/WK FOR 103 WK (STUDY DURATION: 103 WK)) of the same compound?
The carcinogen call was “inactive; negative”.

What about the carcinogen call (Species: RAT, Strain/Sex: F344/N/MALE, Route: DERMAL, Dose: 0, 16, 32, 64 MG/KG BW IN ETHANOL 5 D/WK FOR 103 WK (STUDY DURATION: 103 WK), Dose: 0, 16, 32, 64 MG/KG BW IN ETHANOL 5 D/WK FOR 103 WK (STUDY DURATION: 103 WK)) of the same compound?
The carcinogen call was “inactive; negative”.

With `O=CCCl` as the compound, how does the carcinogen call (Species: MOUSE, Strain/Sex: B6C3F1/MALE, Route: ORAL, Dose: 0, 0.1 G/L DISTILLED DRINKING WATER FOR STUDY DURATION (17 MG/KG/D) (STUDY DURATION: 104 WK), Tumor Site: Type of Lesion: LIVER: HEPATOCELLULAR CARCINOMA, HEPATOCELLULAR ADENOMA) read?
The carcinogen call was “active; positive”.

Which results are given for `CC(O)CN(CC(C)O)N=O` (centres undefined)?
carcinogen call (Species: HAMSTER, Strain/Sex: SYRIAN/MALE,FEMALE, Route: SUBCUTANEOUS, Dose: 40 MG/KG IN SALINE ONCE, Tumor Site: Type of Lesion: PANCREAS: ADENOMA, ADENOCARCINOMA, INTRADUCTAL CARCINOMA): active; positive; carcinogen call (Species: HAMSTER, Strain/Sex: SYRIAN/MALE, Route: SUBCUTANEOUS, Dose: 25, 125, 250 MG/KG 1/WK FOR LIFE, Dose: 25, 125, 250 MG/KG 1/WK FOR LIFE, Tumor Site: Type of Lesion: PANCREAS, NASAL CAVITY, LUNG, LIVER, TRACHEA, LARYNX, Tumor Site: Type of Lesion: PANCREAS, NASAL CAVITY, LUNG, LIVER, TRACHEA, LARYNX): active; positive; carcinogen call (Species: HAMSTER, Strain/Sex: SYRIAN/MALE, Route: SUBCUTANEOUS, Dose: 250, 500, 1000 MG/KG IN OLIVE OIL 1/WK FOR 20 WK, Dose: 250, 500, 1000 MG/KG IN OLIVE OIL 1/WK FOR 20 WK, Tumor Site: Type of Lesion: PANCREAS: ADENOCARCINOMA): active; positive; carcinogen call (Species: HAMSTER, Strain/Sex: SYRIAN/MALE, Route: SUBCUTANEOUS, Dose: 250 MG/KG IN OLIVE OIL 1/WK FOR 25 WK, Tumor Site: Type of Lesion: PANCREAS: ADENOCARCINOMA): active; positive; carcinogen call (Species: MOUSE, Strain/Sex: ICR/FEMALE, Route: SUBCUTANEOUS, Dose: 0, 25, 50, 100 MG/KG BW ONCE ON DAYS 1 AND 8 OF AGE (STUDY DURATION: 50 WK), Dose: 0, 25, 50, 100 MG/KG BW ONCE ON DAYS 1 AND 8 OF AGE (STUDY DURATION: 50 WK), Tumor Site: Type of Lesion: LUNG: TUMOR, LIVER: TUMOR): active; positive; carcinogen call (Species: MOUSE, Strain/Sex: ICR/MALE, Route: SUBCUTANEOUS, Dose: 0, 25, 50, 100 MG/KG BW ONCE ON DAYS 1 AND 8 OF AGE (STUDY DURATION: 50 WK), Dose: 0, 25, 50, 100 MG/KG BW ONCE ON DAYS 1 AND 8 OF AGE (STUDY DURATION: 50 WK), Tumor Site: Type of Lesion: LUNG: TUMOR, LIVER: TUMOR): active; positive; carcinogen call (Species: MOUSE, Strain/Sex: STRAIN-DD/MALE, Route: ORAL, Dose: 100, 250, 500, 1000 PPM IN DRINKING WATER (DAILY INTAKE: 6.3-34.2 MG), Dose: 100, 250, 500, 1000 PPM IN DRINKING WATER (DAILY INTAKE: 6.3-34.2 MG), Tumor Site: Type of Lesion: LUNG: ADENOMA, ADENOCARCINOMA, LIVER: HEMANGIOMA, HEMANGIOENDOTHELIOMA, HEMANGIOENDOTHELIAL SARCOMA): active; positive; carcinogen call (Species: RAT, Strain/Sex: SPRAGUE-DAWLEY/FEMALE, Route: ORAL, Dose: 106 MG/L IN DRINKING WATER 5 DAY/WK FOR 30 WK (TOTAL DOSE: 318 MG), Tumor Site: Type of Lesion: LIVER: HEPATOCELLULAR CARCINOMA, CHOLANGIOCARCINOMA, HEMANGIOENDOTHELIAL SARCOMA): active; positive; carcinogen call (Species: RAT, Strain/Sex: SPRAGUE-DAWLEY/FEMALE, Route: ORAL, Dose: 108 MG/L IN DRINKING WATER 5 DAY/WK FOR 50 WK (TOTAL DOSE 540 MG), Tumor Site: Type of Lesion: NASAL TURBINATES: ADENOCARCINOMA, SQUAMOUS CELL CARCINOMA): active; positive; carcinogen call (Species: RAT, Strain/Sex: WISTAR/MALE, Route: INTRAPERITONEAL, Dose: 3, 4 G/KG ONCE, Tumor Site: Type of Lesion: LUNG: ADENOMA, ADENOCARCINOMA): active; positive; carcinogen call (Species: RAT, Strain/Sex: WISTAR/MALE, Route: ORAL, Dose: 100, 500 PPM IN DRINKING WATER FOR 25 WK, Tumor Site: Type of Lesion: LUNG: ADENOMA, ADENOCARCINOMA, SQUAMOUS CELL CARCINOMA): active; positive; carcinogen call (Species: RAT, Strain/Sex: WISTAR/MALE, Route: ORAL, Dose: 100, 500 PPM IN DRINKING WATER FOR 52 WK, Tumor Site: Type of Lesion: LUNG: ADENOMA, ADENOCARCINOMA, SQUAMOUS CELL CARCINOMA, LIVER: HEMANGIOMA, HEPATOCELLULAR CARCINOMA): active; positive

`Nc1cnn([C@@H]2O[C@H](CO)[C@@H](O)[C@H]2O)c(=O)n1` was tested. Which carcinogen call (Species: RAT, Strain/Sex: F344/MALE, Route: INTRAPERITONEAL, Dose: 0, 2.5 MG/KG IN 0.9% SALINE 3/WK FOR 1 YR (STUDY DURATION: 1 YR)) did it give?
Its carcinogen call is “inactive; negative”.

With `P` as the compound, how does the carcinogen call (Species: RAT, Strain/Sex: F344/FEMALE, Route: INHALATION, Dose: 0, 0.3, 1.0, 3.0 PPM 6 HR/D 5 D/WK FOR 104 WK (STUDY DURATION: 104 WK), Dose: 0, 0.3, 1.0, 3.0 PPM 6 HR/D 5 D/WK FOR 104 WK (STUDY DURATION: 104 WK)) read?
The carcinogen call was “inactive; negative”.

What about the carcinogen call (Species: RAT, Strain/Sex: F344/MALE, Route: INHALATION, Dose: 0, 0.3, 1.0, 3.0 PPM 6 HR/D 5 D/WK FOR 104 WK (STUDY DURATION: 104 WK), Dose: 0, 0.3, 1.0, 3.0 PPM 6 HR/D 5 D/WK FOR 104 WK (STUDY DURATION: 104 WK)) of the same compound?
The carcinogen call was “inactive; negative”.

`O=C(O)CC(O)(CC(=O)O)C(=O)O` was tested. Which carcinogen call (Species: MOUSE, Strain/Sex: BC3F1/FEMALE, Route: IP INJECTION ONCE, Dose: 100, 500, 1000, 5000 BQ (STUDY DURATION: LIFESPAN), Dose: 100, 500, 1000, 5000 BQ (STUDY DURATION: LIFESPAN), Tumor Site: Type of Lesion: BONE: OSTEOSARCOMAS) did it give?
Its carcinogen call is “active; positive”.

And the carcinogen call (Species: MOUSE, Strain/Sex: C3H/FEMALE, Route: IP INJECTION ONCE, Dose: 100, 500, 1000, 5000 BQ (STUDY DURATION: LIFESPAN), Dose: 100, 500, 1000, 5000 BQ (STUDY DURATION: LIFESPAN), Tumor Site: Type of Lesion: BONE: OSTEOSARCOMAS)?
Its carcinogen call is “active; positive”.

And the carcinogen call (Species: MOUSE, Strain/Sex: C57BL/6/FEMALE, Route: IP INJECTION ONCE, Dose: 100, 500, 1000, 5000 BQ (STUDY DURATION: LIFESPAN), Dose: 100, 500, 1000, 5000 BQ (STUDY DURATION: LIFESPAN), Tumor Site: Type of Lesion: BONE: OSTEOSARCOMAS)?
The carcinogen call was “active; positive”.

`CC(N)=S` was tested. Which carcinogen call (Species: MOUSE, Strain/Sex: SWISS, Route: ORAL, Dose: 0.03% IN DIET, Tumor Site: Type of Lesion: LIVER: CARCINOMA) did it give?
Its carcinogen call is “active; positive”.

What about the carcinogen call (Species: RAT, Strain/Sex: WISTAR/MALE,FEMALE, Route: ORAL, Dose: 0.032% IN DIET, Tumor Site: Type of Lesion: LIVER: BILE DUCT TUMOR, NOS) of the same compound?
The carcinogen call was “active; positive”.
